Literature values in US11773445B1, “Diagnostic methods” (GRIFFITH UNIVERSITY, priority 2015, dated 2023).

Conditions: CFS patients; multiple Rituximab infusions

In the case of “Rituximab: drug given as multiple infusions to CFS patients in a cited study; anti-CD20 intervention”, the patients responded is given as 15 of 25.
